Test results reported in patent US4062964A, “Antifertility-combinations” (Ciba-Geigy Corporation, priority 1976, dated 1977).
Where two headings read alike, the source gives them in different places.

What was measured:
pregnant rats [1] = assay: Resorption of embryos by s.c. prostaglandins in pregnant rats; type: in vivo, rat; conditions: for Fetuses / Resorptions / Total Implants: days 4-7
Method: (§1) The efficacy of the compositions according to the invention is demonstrable in animal tests, using advantageously mammals, such as rats, hamsters or baboons, as test objects. Thus, for example, adult female rats weighing 190-250 grams are housed in a "reverse room" as described in Contraception 3, 347 (1971), with the exception that the animals have 14 hours of light between 5 P.M. and 7 A.M., and 10 hours of darkness from 7 A.M. to 5 P.M. They are placed with adult male rats from 10 A.M. to 2 P.M. (i.e. "their midnight" ± 2 hours) following which vaginal smears are obtained.
(§2) Said antifertility compounds may be administered orally, e.g. in suspension with the excipient compraising 3% (by weight) of carboxymethylcellulose, 1.05% methylcellulose, 0.8% sodium chloride, 0.1% polysorbate 80 and 0.002% thimerosal in water, as a single dose on day 5 of pregnancy (i.e. the day after implantation unless otherwise specified). Prostaglandins may be injected subcutaneously twice (9 A.M. and 3 P.M.) on days 4-7 in a conventional 0.1M phosphate buffer at pH = 7.45. Aminoglutethimide phosphate can also be administered in aqueous solution orally, subcutaneously, intraperitoneally or intravenously. The rats are sacrificed on day 10 or 11 of pregnancy and the uterus is examined for living and dead fetuses and implantation sites. The terms "abortion" and "resorption" are used interchangeably because by day 10 or 11 the uterine scars resulting from either event are indistinguishable by gross inspection.
However, when the compounds were injected twice daily (9 a.m. and 3 p.m.) in adequate doses on days 4-7 of gestation, implantation occured at the normal time but this was then followed by resorption of the embryos. […]

pregnant hamsters = assay: Antifertility ED50 in pregnant hamsters; type: in vivo, hamster; conditions: for ED50: Mesocricetus auratus
Method: (§3) Said compositions are administered to pregnant Lakeview hamsters arriving at day 1 postcoitus, which are maintained in a day-night reversed room (11 A.M. to 11 P.M.). Food and water is given ad libitum. Six hamsters per group are used (3 per cage) and each test is carried out with a control group receiving said excipients only. The orally administered AGT is given for 3 consecutive days starting on day 3 postcoitus, at a rate of 5 ml/kg body weight, and these animals are sacrificed on day 10 to 12 postcoitus. The subcutaneously administered TPF is given once on day 5 postcoitus only, at a volume of 0.2 ml per animal, and these animals are sacrificed on day 8 postcoitus. The uterus of each animal is inspected and implantation sites are counted and recorded according to viable or resorbed fetuses. Percent inhibition is determined by comparison of treated groups over the control group.

pregnant rats [2] = assay: Combined treatment AGP and PGF2α, resorption of fetuses in pregnant rats; type: in vivo, rat
Method: as §1, §2

[3] = tested on: pregnant Lakeview hamsters; assay: Antifertility effect (percent of litter living) in pregnant hamsters, AGT p.o. and TPF s.c.; type: in vivo, hamster
Method: Said active ingredients are administered in admixture with the following excipients:
AGT + 3% corn starch + 5% polyethylene glycol 400 + 1 drop of polysorbate 80 per 10 ml of distilled water.
TPF 10 mg per 0.1 ml of ethanol, which solution is diluted with the buffer prepared from 19 ml of 0.2M aqueous monosodium phosphate and 81 ml of 0.2M aqueous disodium phosphate, corrected with the latter to the pH = 7.4.
as §3

progesterone levels = assay: Progesterone levels in rats after aminoglutethimide phosphate; type: in vivo, rat; conditions: large single or daily oral doses
pregnant rats [4] = assay: Abortifacient activity of AGP in pregnant rats (3 doses on day 9; large single or daily oral doses); type: in vivo, rat
Method: as §1, §2

rats = assay: Activity of TPF in rats; conditions: rat, in vivo
rabbits = assay: Activity of TPF in rabbits; conditions: rabbit, in vivo
[5] = tested on: conversion of cholesterol to pregnenolone; conditions: background; cited from earlier work
progesterone secretion = conditions: pregnant and non-pregnant animals and human beings, background; cited from earlier work
[6] = sc, pregnant hamsters, approximative, read-out: ED50 s.c. for antifertility effects
[7] = 100 mg/kg × 3 on day 9, i.p., 10 rats
[8] = 100 mg/kg × 3 on day 9, i.v., 3 rats
[9] = 100 mg/kg × 3 on day 9, p.o., 5 rats

With CCCCC[C@H](O)/C=C/[C@H]1[C@H](O)CC(=O)[C@@H]1C/C=C\CCCC(=O)O [PGE2] the Fetuses (pregnant rats [1]; 200 μg/rat s.c. × 2 daily) was 10.6 ± 2.8, the Resorptions (pregnant rats [1]; 200 μg/rat s.c. × 2 daily) was 0 and the “Total Implants” value (pregnant rats [1]; 200 μg/rat s.c. × 2 daily) was 10.6 ± 2.8. For the same compound, the Fetuses (pregnant rats [1]; 400 μg/rat s.c. × 2 daily) was 6.6 ± 2.8, the Resorptions (pregnant rats [1]; 400 μg/rat s.c. × 2 daily) was 0 and the “Total Implants” value (pregnant rats [1]; 400 μg/rat s.c. × 2 daily) was 6.6 ± 2.8. For the same compound, the Fetuses (pregnant rats [1]; 800 μg/rat s.c. × 2 daily) was 0, the Resorptions (pregnant rats [1]; 800 μg/rat s.c. × 2 daily) was 5.6 ± 2.6 and the “Total Implants” value (pregnant rats [1]; 800 μg/rat s.c. × 2 daily) was 5.6 ± 2.6. For the same compound, the ED50 (pregnant hamsters; [6]) was 2 mg/kg.
In the case of CCCCC[C@H](O)/C=C/[C@@H]1[C@@H](C/C=C\CCCC(=O)O)[C@@H](O)C[C@H]1O [PGF2α, prostaglandin F2α], the “resorption of fetuses in rats” value (pregnant rats [2]; PGF2α 1 mg/kg s.c. on day 5 of pregnancy) is reported as “did not induce resorption of fetuses”, the Fetuses (pregnant rats [2]; PGF2α 1 mg/kg s.c., day 5) is reported as 15.4 ± 0.6 and the Resorptions (pregnant rats [2]; PGF2α 1 mg/kg s.c., day 5) is reported as 0. For the same compound, the “Total Implants” value (pregnant rats [2]; PGF2α 1 mg/kg s.c., day 5) was 15.4 ± 0.6, the Fetuses (pregnant rats [1]; 100 μg/rat s.c. × 2 daily) was 14.2 ± 0.7 and the Resorptions (pregnant rats [1]; 100 μg/rat s.c. × 2 daily) was 0. For the same compound, the “Total Implants” value (pregnant rats [1]; 100 μg/rat s.c. × 2 daily) was 14.2 ± 0.7, the Fetuses (pregnant rats [1]; 200 μg/rat s.c. × 2 daily) was 14.4 ± 0.2 and the Resorptions (pregnant rats [1]; 200 μg/rat s.c. × 2 daily) was 0.2 ± 0.2. The “Total Implants” value (pregnant rats [1]; 200 μg/rat s.c. × 2 daily) was 14.6 ± 0.2, the Fetuses (pregnant rats [1]; 400 μg/rat s.c. × 2 daily) was 0 and the Resorptions (pregnant rats [1]; 400 μg/rat s.c. × 2 daily) was 9.6 ± 2.6. The “Total Implants” value (pregnant rats [1]; 400 μg/rat s.c. × 2 daily) was 9.6 ± 2.6, the “relative activity versus PGE1 and PGE2” value (pregnant rats [1]; s.c. twice daily, days 4-7, rats) was “about twice as active as PGE1 and PGE2” and the ED50 (pregnant hamsters; [6]) was 0.1 mg/kg. The ED50 (pregnant hamsters; oral, pregnant hamsters, approximative, read-out: ED50 oral for antifertility effects) was 7.5 mg/kg.
For CC[C@]1(c2ccc(N)cc2)CCC(=O)NC1=O.CC[C@]1(c2ccc(N)cc2)CCC(=O)NC1=O.O.O=C(O)C(O)C(O)C(=O)O.O=C(O)C(O)C(O)C(=O)O [AGT, d-aminoglutethimide d-tartrate hemihydrate], the “effective as antifertility agent” value ([3]; 500 mg/kg/p.o.) was 100%, the “PERCENT OF LITTER LIVING” value ([3]; AGT 100 mg/kg p.o. day 3-5, TPF 0) was 90% and the “PERCENT OF LITTER LIVING” value ([3]; AGT 250 mg/kg p.o. day 3-5, TPF 0) was 68%. The “PERCENT OF LITTER LIVING” value ([3]; AGT 500 mg/kg p.o. day 3-5, TPF 0) was 0%.
For CCC1(c2ccc(N)cc2)CCC(=O)NC1=O (stereo not shown) [AGP, aminoglutethimide phosphate], the “resorption of fetuses in rats” value (pregnant rats [2]; AGP 30 mg/kg s.c. days 3-5 of pregnancy) was “did not induce resorption of fetuses”, the Fetuses (pregnant rats [2]; AGP 30 mg/kg s.c., days 3-5) was 12.2 ± 1.8 and the Resorptions (pregnant rats [2]; AGP 30 mg/kg s.c., days 3-5) was 1.6 ± 1.1. The “Total Implants” value (pregnant rats [2]; AGP 30 mg/kg s.c., days 3-5) was 13.8 ± 1.0, the “decrease of progesterone levels” value (progesterone levels) was “more than 70%” and the Fetuses (pregnant rats [4]; [7]) was 4.4 ± 2.2. For the same compound, the Resorptions (pregnant rats [4]; [7]) was 8.9 ± 2.0, the “Total Implants” value (pregnant rats [4]; [7]) was 13.3 ± 0.6 and the Fetuses (pregnant rats [4]; [8]) was 4.3 ± 4.3. For the same compound, the Resorptions (pregnant rats [4]; [8]) was 10.3 ± 4.7, the “Total Implants” value (pregnant rats [4]; [8]) was 14.7 ± 0.7 and the Fetuses (pregnant rats [4]; [9]) was 13.8 ± 0.9. For the same compound, the Resorptions (pregnant rats [4]; [9]) was 0.4 ± 0.4, the “Total Implants” value (pregnant rats [4]; [9]) was 14.2 ± 0.7 and the “abortifacient on day 9” value (pregnant rats [4]; given every 8 hours, i.v. versus p.o., rats) was “abortifacient on day 9 when given every 8 hours i.v., but not p.o”. The abortifacient activity (pregnant rats [4]; large single or daily oral doses, rats) was “very resistant to the abortifacient activity”.
For O=C(O)CCCCCCC1OCC(O)C1/C=C/C(O)COc1cccc(C(F)(F)F)c1 (stereo not drawn) [TPF, 7-[3α-(3β-hydroxy-4-(m-trifluoromethylphenoxy)-1-trans-butenyl)-4β-hydroxy-tetrahydro-2β-furyl]-heptanoic acid], the activity in rats (rats) was “active in rats”, the activity in rabbits (rabbits) was “active in rats and rabbits” and the “effective as antifertility agent” value ([3]; 25 μg/animal/s.c.) was 64%. The “PERCENT OF LITTER LIVING” value ([3]; TPF 5 μg s.c. day 5, AGT 0 mg) was 98%, the “PERCENT OF LITTER LIVING” value ([3]; TPF 10 μg s.c. day 5, AGT 0 mg) was 70% and the “PERCENT OF LITTER LIVING” value ([3]; TPF 25 μg s.c. day 5, AGT 0 mg) was 36%. The “oral potency relative to PGF2α” value (pregnant hamsters; oral, more potent than PGF2α) was 10-20 times, the oral antifertility effectiveness (pregnant hamsters; oral, pregnant hamsters) was “orally effective” and the “ED50 oral for antifertility effects” value (pregnant hamsters; oral, pregnant hamsters, approximative) was 0.31 mg/kg. The “ED50 s.c. for antifertility effects” value (pregnant hamsters; s.c., pregnant hamsters, approximative) was 0.1 mg/kg.
For CCC1(c2ccc(N)cc2)CCC(=O)NC1=O (stereo not shown) [aminoglutethimide], the “conversion of cholesterol to pregnenolone in the steroid pathway” value [5] is listed as “blocks the conversion of cholesterol to pregnenolone” and the progesterone secretion (progesterone secretion) is listed as “inhibits progesterone secretion”.
For CCCCC[C@H](O)/C=C/[C@H]1[C@H](O)CC(=O)[C@@H]1CCCCCCC(=O)O [PGE1], the Fetuses (pregnant rats [1]; 200 μg/rat s.c. × 2 daily) was 10.8 ± 2.7, the Resorptions (pregnant rats [1]; 200 μg/rat s.c. × 2 daily) was 0 and the “Total Implants” value (pregnant rats [1]; 200 μg/rat s.c. × 2 daily) was 10.8 ± 2.7. The Fetuses (pregnant rats [1]; 400 μg/rat s.c. × 2 daily) was 10.6 ± 2.7, the Resorptions (pregnant rats [1]; 400 μg/rat s.c. × 2 daily) was 0 and the “Total Implants” value (pregnant rats [1]; 400 μg/rat s.c. × 2 daily) was 10.6 ± 2.7. The Fetuses (pregnant rats [1]; 800 μg/rat s.c. × 2 daily) was 0, the Resorptions (pregnant rats [1]; 800 μg/rat s.c. × 2 daily) was 7.0 ± 1.9 and the “Total Implants” value (pregnant rats [1]; 800 μg/rat s.c. × 2 daily) was 7.0 ± 1.9.
